From ChEMBL document CHEMBL1138312, “Design and synthesis of indole-based peptoids as potent noncompetitive antagonists of transient receptor potential vanilloid 1” (J Med Chem, 2007)

Legend:
[1] = biological target: Glutamate NMDA receptor; Grin1/Grin2a (Rattus norvegicus, UniProt P35439+Q00959); assay: Blockade of L-glutamate/glycine-activated rat NR1/NR2A NMDA receptor expressed in Xenopus oocytes; assay type: cell-based, Oocyte
[2] = biological target: Transient receptor potential cation channel subfamily V member 1 (Rattus norvegicus, UniProt O35433); assay: Blockade of capsaicin-activated rat TRPV1 channel expressed in Xenopus oocytes; assay type: cell-based, Oocyte
Transient receptor potential cation channel subfamily V member 1, sequence (O35433 whole entry): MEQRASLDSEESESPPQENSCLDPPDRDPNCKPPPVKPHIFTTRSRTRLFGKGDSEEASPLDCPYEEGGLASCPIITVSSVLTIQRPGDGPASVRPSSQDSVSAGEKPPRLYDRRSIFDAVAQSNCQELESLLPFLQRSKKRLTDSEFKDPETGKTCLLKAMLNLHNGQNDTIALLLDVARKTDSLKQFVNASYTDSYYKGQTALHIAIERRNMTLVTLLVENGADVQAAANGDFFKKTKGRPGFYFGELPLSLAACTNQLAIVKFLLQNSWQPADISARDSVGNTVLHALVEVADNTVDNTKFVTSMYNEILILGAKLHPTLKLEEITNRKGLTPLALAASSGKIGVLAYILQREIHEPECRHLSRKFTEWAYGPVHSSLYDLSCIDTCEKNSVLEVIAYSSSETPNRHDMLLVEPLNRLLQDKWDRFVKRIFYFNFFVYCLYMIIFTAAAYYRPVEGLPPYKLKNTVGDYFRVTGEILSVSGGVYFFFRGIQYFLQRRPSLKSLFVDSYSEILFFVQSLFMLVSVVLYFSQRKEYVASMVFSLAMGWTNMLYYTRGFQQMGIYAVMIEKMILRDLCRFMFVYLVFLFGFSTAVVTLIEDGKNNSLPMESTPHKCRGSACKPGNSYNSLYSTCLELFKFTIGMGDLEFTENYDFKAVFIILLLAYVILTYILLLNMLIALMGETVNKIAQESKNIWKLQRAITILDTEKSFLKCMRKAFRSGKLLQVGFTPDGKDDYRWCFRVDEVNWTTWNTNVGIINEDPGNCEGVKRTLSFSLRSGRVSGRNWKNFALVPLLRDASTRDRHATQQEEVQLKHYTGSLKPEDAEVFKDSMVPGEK

Glutamate NMDA receptor; Grin1/Grin2a, sequence (Q00959 whole entry, other chains not shown): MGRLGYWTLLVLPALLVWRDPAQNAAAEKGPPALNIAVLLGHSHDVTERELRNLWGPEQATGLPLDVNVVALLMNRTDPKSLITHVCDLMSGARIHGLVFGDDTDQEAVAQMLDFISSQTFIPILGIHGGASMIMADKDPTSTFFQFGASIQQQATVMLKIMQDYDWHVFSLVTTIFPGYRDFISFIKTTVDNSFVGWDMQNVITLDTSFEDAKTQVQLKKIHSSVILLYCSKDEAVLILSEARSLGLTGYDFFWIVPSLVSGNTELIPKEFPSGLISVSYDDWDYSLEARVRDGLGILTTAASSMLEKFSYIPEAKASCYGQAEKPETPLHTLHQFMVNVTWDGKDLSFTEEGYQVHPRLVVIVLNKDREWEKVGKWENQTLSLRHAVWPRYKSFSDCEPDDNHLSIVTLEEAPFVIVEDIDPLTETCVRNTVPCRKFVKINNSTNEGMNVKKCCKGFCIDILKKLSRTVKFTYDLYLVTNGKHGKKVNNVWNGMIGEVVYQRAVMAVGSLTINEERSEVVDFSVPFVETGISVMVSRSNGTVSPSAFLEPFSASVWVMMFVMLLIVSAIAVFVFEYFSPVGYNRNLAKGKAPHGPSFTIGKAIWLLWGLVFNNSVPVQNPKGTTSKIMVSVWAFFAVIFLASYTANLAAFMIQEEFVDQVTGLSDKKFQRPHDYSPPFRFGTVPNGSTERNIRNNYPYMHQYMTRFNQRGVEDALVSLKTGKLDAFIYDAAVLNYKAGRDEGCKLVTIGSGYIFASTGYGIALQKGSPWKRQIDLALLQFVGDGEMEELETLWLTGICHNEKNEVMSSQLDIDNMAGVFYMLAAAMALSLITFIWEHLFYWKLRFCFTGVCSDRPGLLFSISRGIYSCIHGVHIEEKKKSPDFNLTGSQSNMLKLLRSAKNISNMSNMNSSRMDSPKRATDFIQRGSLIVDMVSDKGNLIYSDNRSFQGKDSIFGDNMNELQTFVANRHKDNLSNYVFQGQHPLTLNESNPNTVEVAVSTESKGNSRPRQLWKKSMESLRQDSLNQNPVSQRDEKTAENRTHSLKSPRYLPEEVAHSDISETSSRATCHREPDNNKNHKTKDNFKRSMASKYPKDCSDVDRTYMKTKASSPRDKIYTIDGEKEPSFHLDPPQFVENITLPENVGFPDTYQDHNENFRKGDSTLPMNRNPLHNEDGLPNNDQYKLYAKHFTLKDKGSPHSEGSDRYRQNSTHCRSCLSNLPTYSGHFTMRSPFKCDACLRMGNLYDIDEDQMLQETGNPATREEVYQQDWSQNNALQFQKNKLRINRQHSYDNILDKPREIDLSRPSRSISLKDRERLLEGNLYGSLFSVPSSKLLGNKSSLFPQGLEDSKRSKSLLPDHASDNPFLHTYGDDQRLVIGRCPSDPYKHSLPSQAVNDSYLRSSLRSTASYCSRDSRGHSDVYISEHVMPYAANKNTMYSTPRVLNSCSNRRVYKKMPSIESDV

SMILES | IC50 [1] | IC50 [2]
N=C(N)NCCC[C@H](N)C(=O)N(CCc1ccc(Cl)cc1Cl)CC(=O)N(CCc1ccc(Cl)cc1Cl)CC(N)=O | 15 µM | 0.7 µM
NCCCCCCN(CCc1ccc(Cl)cc1Cl)CC(=O)N(CCc1ccc(Cl)cc1Cl)CC(N)=O | 3 µM | 0.4 µM
N=C(N)NCCC[C@H](N)C(=O)N(CCc1ccc(Cl)cc1Cl)CC(=O)NCCc1ccc(Cl)cc1Cl | 0.8 µM | 0.17 µM
NC(N)=NCCC[C@H](N)C(=O)N(CCc1c[nH]c2ccccc12)CC(=O)NCCc1c[nH]c2ccccc12 | 18 µM | –
N=C(N)NCCC[C@H](N)C(=O)N(CCc1c[nH]c2ccccc12)CC(=O)N(CCc1c[nH]c2ccccc12)CC(N)=O | 207 µM | 1.33 µM
NC(=O)CN(CCc1ccc(Cl)cc1Cl)C(=O)CN(CCc1c[nH]c2ccccc12)C(=O)[C@@H](N)CCCN=C(N)N | 17 µM | 0.52 µM
N=C(N)NCCC[C@H](N)C(=O)N(CCc1ccc(Cl)cc1Cl)CC(=O)N(CCc1c[nH]c2ccccc12)CC(N)=O | 166 µM | 0.18 µM
NC(N)=NCCC[C@H](N)C(=O)N[C@H]1C[C@@H](C(=O)NCCc2ccc(Cl)cc2Cl)N(Cc2ccc(Cl)cc2Cl)C1 | 8 µM | 0.7 µM
